Biological target: T1, rubredoxin (RD), in polyprotein (RD-GB1)n (Pyrococcus furiosus, UniProt P24297)
T1 construct: gene rub; full-length ferric (FeS4) rubredoxin fused to GB1 fingerprint domain, His-tag purified from E. coli DH5alpha, linked by BM(PEO)3 thiol-maleimide coupling into (RD-GB1)n
T1 sequence (P24297 2-54): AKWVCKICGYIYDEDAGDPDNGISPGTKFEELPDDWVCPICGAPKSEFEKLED
Test: single-molecule AFM force clamp, FeS4 rupture rate against [KSCN]
Format: binding
Conditions: pH 7.4, 100 mM Tris and NaCl, KSCN 5-800 mM; ferric-thiolate bond rupture rate extrapolated to zero force (Bell-Evans); FeS4 centre exposed by force-induced partial unfolding; not an affinity

Compound: N#CS [SCN^−]
- k (second-order rate constant of ligand substitution): 0.36 M⁻¹ s⁻¹
